Laboratory results: patent publication US20250360116A1, “PICOLINIC-2-CARBOXAMIDE HYBRIDIZED WITH ANTHRAQUINONE DERIVATIVES, METHODS OF PREPARATION, AND A PHARMACEUTICAL COMPOSITION COMPRISING THE SAME” (AL-ZAYTOONAH UNIVERSITY OF JORDAN, priority 2023, published 2025)
Marks after values point to notes of the source that are not given here.

Test system: Triton WR-1339 induced hyperlipidemic Wistar Rats
Test: Plasma lipid levels in triton WR-1339 induced hyperlipidemia in rats
Assay type: in vivo
Details: for HDL-C (plasma) / LDL-C (plasma) / TC (plasma) / TG (plasma): 20 mg/kg intragastric after triton WR-1339 200 mg/Kg i.p., about 6 hours, mean ± SEM, five rats; for Effect on elevated TC levels / Effect on elevated plasma LDL-C levels / Effect on elevated plasma TG levels / Effect on plasma HDL-C levels: in words, in comparison with HCG, 20 mg/kg intragastric, 6 hours
Experimental: The study was conducted on twenty-five adult male Wistar Rats weighting 200±10 g. Wistar Rats were bred in the animal care center of Faculty of Pharmacy in Al-Zaytoonah University of Jordan. The animals were kept on 12 hours' light/dark cycle, at room temperature (25±1° C.) with free access to food and water. The rats were divided randomly into five groups each consist of five rats, whereby Group I was the normal control group (“NCG”) that received an intraperitoneal administration of normal saline, Group II was the hyperlipidemic control group (“HCG”) that received an intraperitoneal injection of about 200 mg/Kg triton WR-1339 dissolved in about 4% dimethylsulfoxide (“DMSO”)/corn oil, Groups (III, IV, V) rats received intraperitoneal injection of about 200 mg/Kg triton WR-1339.
After about 6 hours of treatment, the rats were anaesthetized with diethyl ether and blood was collected. The blood samples were immediately centrifuged at about 3000 rpm for about 10 minutes and the serum was used for lipid profile measurements (TG, LDL-C, TC and HDL-C) by an automated chemistry analyzer (Model Erba XL-300, Mannheim, Germany). Furthermore, liver samples were collected, and then kept in liquid nitrogen, and stored at (−80° C.) for the mRNA extraction as described in Example 5 below.
The plasma of TG, TC, LDL-C and HDL-C levels in HCG treated at 6 hours after administration of triton WR-1339 are shown in FIG. 2.
After the injection of Wistar Rats with Triton WR-1339 in Example 3, Groups III, IV, V received an intragastric administration of (20 mg/kg by weight) of compounds C1, C2 and C3, respectively, dissolved in about 4% DMSO/corn oil. FIGS. 3, 4, 5, 6 illustrate bar charts showing the effect of the compounds C1, C2, and C3 on the Triton WR-1339 induced hyperlipidemic Wistar Rats after about 6 hours of treatment on TG, TC, LDL-C, and HDL-C.

Row | SMILES | HDL-C (plasma) | LDL-C (plasma) | TC (plasma) | TG (plasma) | Effect on elevated TC levels | Effect on elevated plasma LDL-C levels | Effect on elevated plasma TG levels | Effect on plasma HDL-C levels
1 | O=C(Nc1cccc2c1C(=O)c1ccccc1C2=O)c1ccccn1 [Compound C1, N-(9,10-dioxo-9,10-dihydroanthracen-1-yl) picolinamide] | 56 ± 4.6 ^b mg/dl | 6 ± 0.7 ^b mg/dl | 42 ± 10 ^b mg/dl | 145 ± 14.2 ^b mg/dl | significantly decreased | significantly lowered | significantly decreased | significantly increased
2 | O=C(Nc1ccc2c(c1)C(=O)c1ccccc1C2=O)c1ccccn1 [Compound C2, N-(9,10-dioxo-9,10-dihydroanthracen-2-yl) picolinamide] | 38 ± 4.4 ^a mg/dl | 9 ± 0.6 ^a mg/dl | 75 ± 15.2 ^a mg/dl | 985 ± 15.3 ^a mg/dl | significantly decreased | significantly lowered | significantly decreased | significantly increased
3 | O=C(Nc1ccc(O)c2c1C(=O)c1ccccc1C2=O)c1ccccn1 [Compound C3, N-(4-hydroxy-9,10-dioxo-9,10-dihydroanthracen-1-yl) picolinamide] | 22 ± 2 mg/dL | 11 ±1.2 ^ mg/dl | 122 ± 11 mg/dL | 1375 ± 23 mg/dL | non-significant effect | non-significant effect | non-significant effect | non-significant effect
